Results from patent publication US9796687B2, “S-substituted quinazolines and their therapeutic applications for the treatment of diseases mediated by PDE7” (Consejo Superior De Investigaciones Cientificas (CSIC), priority 2016, dated 2017).
Read-outs that look alike come from different tables or passages of the source. Blank lines part the entries; values can stand above or below the molecule they belong to.

Columns and labels:
PDE4B2 = PDE4B2 (Homo sapiens (Human), UniProt Q07343); assay: PDE4B2 inhibition; type: biochemical
PDE7A1 = PDE7A1 (Homo sapiens (Human), UniProt Q13946); assay: PDE7 inhibition, commercial phosphodiesterase activity kit ([3H]cAMP, SPA); type: biochemical
Procedure: Measurement of PDE7 inhibition was carried out using a commercial phosphodiesterase activity measurement kit.
Some of the compounds of the present invention (including those synthesised in Example 1) were evaluated. For this purpose, said compounds were incubated (in a range of concentrations from 0.1 nM to 100 μM) in the presence of 0.02 U/well of PDE7A1 and 0.05 μCi of [^3H] cAMP, for 20 minutes at 30° C. in the assay buffer supplied with the kit (total volume per well=100 μL). Once this time had elapsed, 50 μL of a 20 mg/mL suspension of SPA glass silicate microspheres were added and kept in agitation at ambient temperature for 60 minutes. After allowing the plate to rest for 20 minutes, the radioactivity was tested in a scintillation detector. All the assays included two points in the absence of PDE7A1 (blank/negative control) and two points with PDE7A1 in the absence of inhibitors (positive control).
The data were adjusted with a software program using non-linear adjustment.

PDE4D3 = PDE4D3 (Homo sapiens (Human), UniProt Q08499); assay: PDE4D3 inhibition; type: biochemical
in vitro = conditions: PAMPA, pH 7.4
Procedure: (§1) PDVF membrane filters were used for filtering the samples (diameter 30 mm, pore size 0.45 μm).
(§2) Ten reference compounds were selected whose passage across the blood-brain barrier is known and in the public domain, in order to validate the experiment. […] The solutions were filtered. Afterwards, 180 μL of a solution of PBS/ethanol (70/30) were added to each well of the acceptor plate. The donor plate was impregnated with 4 μL of a solution of porcine brain lipid dissolved in dodecane (20 mg mL-1).
(§3) After 5 minutes, 180 μL of solution of each compound were added to this plate.
(§4) The donor plate was then placed on the acceptor plate, forming a kind of sandwich, and left to incubate for 2 h and 30 min at 25° C. The compounds passed by passive transport from the donor plate, through the porcine brain lipid, to the acceptor plate. After 2 h and 30 min, the donor plate was carefully removed.
(§5) The concentration and absorbance, both of the commercial compounds and of the compounds of the present invention that were evaluated in the acceptor and donor plates, were determined using a UV absorbance reader. Each sample was analysed at different wavelengths (between 3 and 5 absorbance minima and maxima were chosen for each compound at wavelength valves of between 220 nm and 450 nm), in 3 wells and in a minimum of 2 independent experiments. […] The measurements were carried out on the acceptor plate.

in vivo = conditions: C57BL/6, mouse
Procedure: (§6) After the blood extraction, the mice of each group were sacrificed by asphyxia with CO2, in order to obtain the brain. The brains were washed in a cold solution, dried in filter paper, weighed and placed in polypropylene tubes. The brains were homogenised with a buffered solution of phosphate pH 7.4, so that the total volume of the homogenate was three times the weight of the brain. The samples were stored at −70° C. until their analysis.
(§7) The extraction procedure for the plasma/brain homogenate or plasma calibration standard/doped brain samples was the same: 100 μL of the internal standard (imipramine, 500 ng/mL) were added, prepared in acetonitrile, to 25 μL of sample (plasma/brain) or doped calibration standard, and agitated with a vortex agitator for 5 minutes. As a blank (negative control), only acetonitrile was added. The samples were centrifugated for 10 min at 15000 rpm (20600 g) at 4° C. 100 μL of each supernatant were transferred to 96-well plates for its analysis by liquid chromatography-tandem mass spectrometry (LC-MS/MS). The calibration standards were prepared by doping 10 μL of analyte (compound to be studied, 1 mg/mL) in 190 μL of virgin plasma/brain homogenate (and subsequent serial dilutions).
(§8) The pharmacokinetic study was performed based on the time-concentration data obtained for the plasma and brain, by means of non-compartmental analysis using version 5.2 of WinNonlin®. The areas under the concentration-time curve (AUClast and AUCinf) were calculated using the linear trapezoidal rule.
(§9) The only difference lay in the administration of the compounds, which was via the oral route, in a suspension consisting of Tween 80 0.1% v/v and sodium carboxymethyl cellulose (NaCMC) 0.5% w/v in water. The compounds were administered at a dosage of 10 mg/kg, by gastric intubation using a 22-gauge oral feeding needle.

[1] = Pharmacokinetic studies in mice: exposure in plasma and brain; conditions: for levels in plasma and brain 2 hours after administration (elimination): intraperitoneal or oral administration; for Kp / Tmax / Cmax: C57BL/6, mouse; for Kp: brain; for Tmax: plasma and brain; for Cmax: plasma
Procedure: as §6, §7, §8, §9

hERG channel = hERG channel (Homo sapiens (Human), UniProt Q12809); assay: Toxicity on the cardiac hERG channel, FluxOR thallium fluorescence assay in HEK293 cells; type: cell-based
Description: The hERG potassium channel contributes in the final phase of the action potential, bringing the cell to its resting state. If a drug suppresses the activity of the channel, it can produce a prolongation of the […], known as “long QT syndrome”, resulting in a fatal ventricular arrhythmia.
To characterise the behaviour of the hERG potassium channel in the presence of the compounds of the present invention, use was made of an assay based on a fluorescent probe (FluxOR®, Life Technologies) with high affinity for thallium, an indicator of the activity of the potassium ion channel. When the potassium channels open in response to a stimulus, the influx of thallium from the external environment is detected by the probe. The fluorescent signal is therefore proportional to the number of open potassium channels in the cell. The FluxOR® is added in ester form without fluorescent emission capacity, thus preventing the emission of fluorescence outside the cell. When it enters the cell, the cytosol esterases activate the FluxOR®, so that it is capable of binding the thallium that passes into the cytoplasm through the hERG channel and of emitting fluorescence.
Black plates containing 96 wells treated with poly-D-lysine were seeded with HEK293 cells (deposit number ATCC CRL-1573) modified to stably express the hERG channel. […] After one hour of incubation of the fluorochrome with the cells at ambient temperature, the plates were washed with 50 μL of assay buffer. Subsequently, 20 μL of the compounds to be studied were added at a dilution of 1:200 (2 μL of compound/400 μL of assay buffer), in triplicate, on 12-point curves (1:2 dilutions of the compound in DMSO). […]. After 30 minutes of incubation, the plates were read in a FLIPR TETRA®, which added 5 μL of stimulus buffer (Tl2SO4+K2SO4). […]

[2] = Parallel artificial membrane permeability assay (PAMPA) for CNS / blood-brain barrier permeability; conditions: pH 7.4
Procedure: as §1, §2, §3, §4, §5

[3] = mice, intraperitoneal administration, 10 mg/kg
[4] = mice, oral administration, 10 mg/kg
[5] = mice, oral administration, 10 mg/kg, Tmax 0.5 h

PDE4B2, sequence (Q07343 other isoform, or with tags, fused parts or gaps, species assumed): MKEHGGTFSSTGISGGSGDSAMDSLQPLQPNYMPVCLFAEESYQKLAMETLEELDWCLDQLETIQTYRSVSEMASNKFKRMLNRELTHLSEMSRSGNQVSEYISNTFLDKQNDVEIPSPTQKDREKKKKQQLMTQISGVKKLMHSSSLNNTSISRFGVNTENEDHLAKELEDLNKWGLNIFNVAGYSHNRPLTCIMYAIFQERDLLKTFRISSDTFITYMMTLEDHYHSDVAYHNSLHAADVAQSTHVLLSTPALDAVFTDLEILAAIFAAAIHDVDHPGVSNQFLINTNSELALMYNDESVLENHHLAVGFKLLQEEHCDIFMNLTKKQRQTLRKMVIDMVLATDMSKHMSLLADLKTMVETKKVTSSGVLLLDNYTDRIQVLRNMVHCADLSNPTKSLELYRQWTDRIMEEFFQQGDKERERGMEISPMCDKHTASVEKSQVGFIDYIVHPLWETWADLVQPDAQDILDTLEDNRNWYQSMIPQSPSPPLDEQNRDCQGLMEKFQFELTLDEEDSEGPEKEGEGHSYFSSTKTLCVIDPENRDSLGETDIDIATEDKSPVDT
hERG channel, sequence (Q12809 whole entry): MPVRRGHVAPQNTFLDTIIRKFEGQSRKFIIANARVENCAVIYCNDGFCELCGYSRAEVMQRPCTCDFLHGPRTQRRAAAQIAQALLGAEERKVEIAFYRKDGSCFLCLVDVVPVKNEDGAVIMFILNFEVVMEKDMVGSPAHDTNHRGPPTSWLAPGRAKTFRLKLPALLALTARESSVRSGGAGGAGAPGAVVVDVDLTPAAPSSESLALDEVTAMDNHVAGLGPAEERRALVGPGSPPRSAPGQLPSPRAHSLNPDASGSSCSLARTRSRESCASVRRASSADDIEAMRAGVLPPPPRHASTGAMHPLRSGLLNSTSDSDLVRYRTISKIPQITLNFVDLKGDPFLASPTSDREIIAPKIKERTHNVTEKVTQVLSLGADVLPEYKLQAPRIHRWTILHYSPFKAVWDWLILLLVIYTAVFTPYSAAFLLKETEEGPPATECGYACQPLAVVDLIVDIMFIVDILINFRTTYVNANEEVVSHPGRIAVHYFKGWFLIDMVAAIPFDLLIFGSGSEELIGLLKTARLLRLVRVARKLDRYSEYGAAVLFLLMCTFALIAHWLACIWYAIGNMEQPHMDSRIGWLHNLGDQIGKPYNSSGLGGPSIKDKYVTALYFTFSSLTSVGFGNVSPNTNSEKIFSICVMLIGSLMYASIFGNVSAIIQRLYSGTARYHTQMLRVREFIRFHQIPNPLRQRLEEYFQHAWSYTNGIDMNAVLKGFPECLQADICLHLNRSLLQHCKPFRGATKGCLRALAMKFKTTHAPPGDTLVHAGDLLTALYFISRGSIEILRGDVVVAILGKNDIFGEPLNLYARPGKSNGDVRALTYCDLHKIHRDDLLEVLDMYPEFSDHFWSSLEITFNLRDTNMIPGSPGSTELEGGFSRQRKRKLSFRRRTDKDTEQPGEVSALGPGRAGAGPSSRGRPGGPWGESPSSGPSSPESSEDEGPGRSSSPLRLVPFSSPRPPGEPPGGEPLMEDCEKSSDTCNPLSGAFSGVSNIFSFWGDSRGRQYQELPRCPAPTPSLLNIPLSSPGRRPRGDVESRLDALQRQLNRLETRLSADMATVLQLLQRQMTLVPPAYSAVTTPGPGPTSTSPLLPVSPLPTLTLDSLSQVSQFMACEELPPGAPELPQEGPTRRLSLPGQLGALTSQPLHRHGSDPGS
PDE4D3, sequence (Q08499 other isoform, or with tags, fused parts or gaps): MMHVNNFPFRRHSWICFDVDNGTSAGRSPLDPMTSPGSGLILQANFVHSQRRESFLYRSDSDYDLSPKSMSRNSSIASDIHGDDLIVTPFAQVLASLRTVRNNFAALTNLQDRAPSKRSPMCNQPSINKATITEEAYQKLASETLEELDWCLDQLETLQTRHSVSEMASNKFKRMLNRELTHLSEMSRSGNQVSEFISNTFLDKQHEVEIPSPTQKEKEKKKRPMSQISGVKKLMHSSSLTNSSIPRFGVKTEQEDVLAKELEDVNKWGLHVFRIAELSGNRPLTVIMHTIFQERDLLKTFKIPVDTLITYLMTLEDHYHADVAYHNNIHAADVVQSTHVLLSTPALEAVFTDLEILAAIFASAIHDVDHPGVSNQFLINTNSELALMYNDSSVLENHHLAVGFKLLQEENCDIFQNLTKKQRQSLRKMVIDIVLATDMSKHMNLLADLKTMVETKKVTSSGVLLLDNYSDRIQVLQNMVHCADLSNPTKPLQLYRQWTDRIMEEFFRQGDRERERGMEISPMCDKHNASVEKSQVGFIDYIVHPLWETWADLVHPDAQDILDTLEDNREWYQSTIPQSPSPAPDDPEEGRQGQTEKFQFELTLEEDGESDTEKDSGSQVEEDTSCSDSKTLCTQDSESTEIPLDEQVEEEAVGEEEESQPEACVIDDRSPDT
PDE7A1, sequence (Q13946 whole entry, species assumed): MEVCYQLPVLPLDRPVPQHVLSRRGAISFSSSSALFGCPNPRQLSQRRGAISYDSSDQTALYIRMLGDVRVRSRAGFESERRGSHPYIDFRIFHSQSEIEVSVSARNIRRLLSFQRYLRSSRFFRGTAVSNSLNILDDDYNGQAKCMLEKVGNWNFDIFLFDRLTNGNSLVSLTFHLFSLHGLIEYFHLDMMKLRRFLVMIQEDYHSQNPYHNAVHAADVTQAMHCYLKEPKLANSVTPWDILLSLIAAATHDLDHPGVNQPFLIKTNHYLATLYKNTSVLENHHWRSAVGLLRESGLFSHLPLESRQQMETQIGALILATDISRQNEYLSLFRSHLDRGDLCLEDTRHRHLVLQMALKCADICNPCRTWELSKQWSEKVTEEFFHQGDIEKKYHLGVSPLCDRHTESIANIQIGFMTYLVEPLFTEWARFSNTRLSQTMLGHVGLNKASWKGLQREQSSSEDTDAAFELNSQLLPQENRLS

Structure (SMILES): O=c1c2ccccc2nc(SCC2CCCCC2)n1-c1ccccc1 [Compound 1, 2-Cyclohexylmethylthio-3-phenyl-4-oxo-3,4-dihydroquinazoline]
inhibition at 10 µM (PDE4B2): 18%
IC50 (PDE7A1; read-out: PDE7A IC50): 0.2 µM
inhibition at 10 µM (PDE4D3): 49%

inhibition at 10 µM (PDE4B2): 28%
IC50 (PDE7A1; read-out: PDE7A IC50): 0.6 µM
inhibition at 10 µM (PDE4D3): 38%
Structure (SMILES): O=c1c2ccccc2nc(SCc2ccccc2)n1-c1ccccc1 [Compound 21, 2-Benzylthio-3-phenyl-4-oxo-3,4-dihydroquinazoline]

IC50 (PDE7A1; read-out: PDE7A IC50): 0.09 µM
Structure (SMILES): O=c1c2ccccc2nc(SCc2ccc3ccccc3c2)n1-c1ccccc1 [Compound 28, 3-Phenyl-2-(2-naphthylmethylthio)-4-oxo-3,4-dihydroquinazoline]

Structure (SMILES): Cc1cccc2c(=O)n(-c3c(F)cccc3F)c(SCC3CC3)nc12 [Compound 15, 2-Cyclopropylmethylthio-3-(2,6-difluorophenyl)-8-methyl-4-oxo-3,4-dihydroquinazoline]
Papp at 2.5 h (in vitro): 13 ± 9 nm/s
IC50 (PDE7A1; read-out: PDE7A IC50): 4.56 µM

Papp at 2.5 h (in vitro): 124 ± 22 nm/s
IC50 (PDE7A1; read-out: PDE7A IC50): 0.8 µM
Structure (SMILES): O=c1c2ccccc2nc(SCc2ccccn2)n1-c1ccccc1 [Compound 23, 3-Phenyl-2-(2-pyridylmethylthio)-4-oxo-3,4-dihydroquinazoline]

Structure (SMILES): CCSc1nc2c(Cl)cccc2c(=O)n1-c1c(F)cccc1F [Compound 18, 8-Chloro-2-ethylthio-3-(2,6-difluorophenyl)-4-oxo-3,4-dihydroquinazoline]
IC50 (PDE7A1; read-out: PDE7A IC50): 2.44 µM

Structure (SMILES): CC(C)(C)CSc1nc2c(Cl)cccc2c(=O)n1-c1ccccc1 [Compound 11, 8-Chloro-3-phenyl-2-neopentylthio-4-oxo-3,4-dihydroquinazoline]
IC50 (PDE7A1; read-out: PDE7A IC50): 1.2 µM

Papp at 2.5 h (in vitro): 121 ± 39 nm/s
IC50 (PDE7A1; read-out: PDE7A IC50): 0.54 µM
Structure (SMILES): O=c1[nH]c(SCc2cccnc2)nc2c(Cl)cccc12 [Compound 25, 8-Chloro-2-(3-pyridylmethylthio)-4-oxo-3,4-dihydroquinazoline]

Structure (SMILES): CCSc1nc2ccccc2c(=O)n1-c1ccccc1 [Compound 16, 2-Ethylthio-3-phenyl-4-oxo-3,4-dihydroquinazoline]
Papp at 2.5 h (in vitro): 79 ± 12 nm/s
IC50 (PDE7A1; read-out: PDE7A IC50): 6.9 µM

Structure (SMILES): CC(C)(C)CSc1nc2ccccc2c(=O)n1-c1ccccc1 [Compound 5, 3-Phenyl-2-neopentylthio-4-oxo-3,4-dihydroquinazoline]
Kp (in vivo): > 1
Cmax (in vivo; ip, 10 mg/kg): 2.31 µM
Kp (in vivo; ip, 10 mg/kg): 2.45
Tmax (in vivo; ip, 10 mg/kg): 15 min
Cmax (in vivo; po, 10 mg/kg): 1.38 µM
Kp (in vivo; po, 10 mg/kg): 1.19
Tmax (in vivo; po, 10 mg/kg): 30 min
inhibition at 10 µM (PDE4B2): 29%
IC50 (PDE7A1; Table 3, read-out: PDE inhibitory activity PDE7A CI50): 0.1 µM
IC50 (PDE7A1; read-out: PDE7A IC50): 0.1 µM
inhibition at 10 µM (PDE4D3): 37%
Cmax/PDE7 IC50 ratio, brain [1, 3]: 56.5
Cmax/PDE7 IC50 ratio, plasma [1, 3]: 23.1
Brain Cmax ([1]; mice, intraperitoneal administration, 10 mg/kg, Tmax 0.25 h): 5.65 µM
levels in plasma and brain 2 hours after administration (elimination) ([1]; mice, 10 mg/kg): still considerable levels
Cmax/PDE7 IC50 ratio, brain [1, 4]: 16.4
Cmax/PDE7 IC50 ratio, plasma [1, 4]: 13.8
Brain Cmax [1, 5]: 1.64 µM
IC50 (hERG channel): > 30 µM
cardiotoxic potential (hERG channel; deduced from hERG data): did not have any cardiotoxic potential

Structure (SMILES): CN1C(C(=O)Nc2ccccn2)=C(O)c2ccccc2S1(=O)=O [Piroxicam, piroxicam]
Papp at 2.5 h [2]: 2 ± 1 nm/s

Papp at 2.5 h (in vitro): 159 ± 13 nm/s
IC50 (PDE7A1; read-out: PDE7A IC50): 2.6 µM
Structure (SMILES): O=c1c2ccccc2nc(SCc2ccncc2)n1-c1ccccc1 [Compound 27, 3-Phenyl-2-(4-pyridylmethylthio)-4-oxo-3,4-dihydroquinazoline]

Structure (SMILES): Cc1ccccc1-n1c(SCC(C)(C)C)nc2ccccc2c1=O [Compound 13, 3-(2-Methylphenyl)-2-neopentylthio-4-oxo-3,4-dihydroquinazoline]
Papp at 2.5 h (in vitro): 39 ± 7 nm/s
IC50 (PDE7A1; read-out: PDE7A IC50): 1.85 µM

Structure (SMILES): Cc1ccccc1-n1c(SCc2cccnc2)nc2ccccc2c1=O [Compound 26, 3-(2-Methylphenyl)-2-(3-pyridylmethylthio)-4-oxo-3,4-dihydroquinazoline]
Papp at 2.5 h (in vitro): 201 ± 1 nm/s
IC50 (PDE7A1; read-out: PDE7A IC50): 0.12 µM

Papp at 2.5 h (in vitro): 186 ± 17 nm/s
IC50 (PDE7A1; read-out: PDE7A IC50): 0.7 µM
Structure (SMILES): O=c1c2ccccc2nc(SCc2cccnc2)n1-c1ccccc1 [Compound 24, 3-Phenyl-2-(3-pyridylmethylthio)-4-oxo-3,4-dihydroquinazoline]

Structure (SMILES): CCSc1nc2ccccc2c(=O)n1-c1c(F)cccc1F [Compound 17, 2-Ethylthio-3-(2,6-difluorophenyl)-4-oxo-3,4-dihydroquinazoline]
Papp at 2.5 h (in vitro): 48 ± 6 nm/s
IC50 (PDE7A1; read-out: PDE7A IC50): 6.99 µM

Structure (SMILES): O=c1c2ccccc2nc(SCC2CC2)n1-c1ccccc1Br [Compound 14, 3-(2-Bromophenyl)-2-cyclopropylmethylthio-4-oxo-3,4-dihydroquinazoline]
Papp at 2.5 h (in vitro): 19 ± 3 nm/s
IC50 (PDE7A1; read-out: PDE7A IC50): 9.44 µM

Kp ([1]; ip, 10 mg/kg): 0.51
Kp ([1]; other: intraperitoneal and oral, 10 mg/kg): < 1
Kp ([1]; po, 10 mg/kg): 0.43
Tmax ([1]; ip, 10 mg/kg): 15 min
Tmax ([1]; po, 10 mg/kg): 30 min
Cmax ([1]; ip, 10 mg/kg): 6.79 µM
Cmax ([1]; po, 10 mg/kg): 0.86 µM
Cmax/PDE7 IC50 ratio, brain [1, 3]: 3.33
Cmax/PDE7 IC50 ratio, plasma [1, 3]: 6.53
levels in plasma and brain 2 hours after administration (elimination) ([1]; mice, 10 mg/kg): almost eliminated
Cmax/PDE7 IC50 ratio, brain [1, 4]: 0.36
Cmax/PDE7 IC50 ratio, plasma [1, 4]: 0.83
Brain Cmax [1, 5]: 0.37 µM
Brain Cmax ([1]; mouse, in vivo): 3.46 µM
Structure (SMILES): S=c1[nH]c2ccccc2c(=S)n1-c1ccccc1 [TC3.6, 3-Phenyl-2,4-dithioxo-1,2,3,4-tetrahydroquinazoline]
IC50 (hERG channel; stimulated the opening of the potassium channel, HEK293 hERG, FluxOR): 5.19 µM

Structure (SMILES): O=c1c2ccccc2nc(SCC2CCCCC2)n1-c1ccccc1Br [Compound 2, 3-(2-Bromophenyl)-2-cyclohexylmethylthio-4-oxo-3,4-dihydroquinazoline]
IC50 (PDE7A1; read-out: PDE7A IC50): 2.11 µM

Structure (SMILES): Cc1cccc2c(=O)n(-c3c(F)cccc3F)c(SCC(C)(C)C)nc12 [Compound 6, 3-(2,6-Difluorophenyl)-8-methyl-2-neopentylthio-4-oxo-3,4-dihydroquinazoline]
IC50 (PDE7A1; read-out: PDE7A IC50): 8.67 µM
